Values of other authors as cited in patent publication EP0438873A1, “Inhibitor of ribonucleotide reductase of herpes viruses” (MERCK & CO. INC., priority 1989, dated 1991).
Where no end group is shown, it is not given here.

Tested on: ribonucleotide reductase enzyme of herpes simplex virus
Settings: from Dutia et al., Cohen et al., U.S. Patent No. 4,795,740

For “YGAVVNDL [8-desalanine homolog of the nonapeptide, disclosed by Dutia et al]”, the “inhibited in vitro the activity of this enzyme (HSV ribonucleotide reductase)” value is given as “inhibited”.
For “Tyr Ala Gly Ala Val Val Asn Asp Leu (YAGAVVNDL; printed: Tyr Ala Gly Ala Val Val Asn Asp Leu) [the nonapeptide disclosed by Dutia et al. and Cohen et al]”, the “inhibited in vitro the activity of this enzyme (HSV ribonucleotide reductase)” value is given as “inhibited”.
